The values below come from patent publication US12458630B2, “Combination therapy for cancer” (The Regents of the University of California, priority 2020, dated 2025).

The structures appear in SMILES notation. Entries after “also recorded” stand apart in the source; their conditions may differ.

For one experiment, the system named is KC6141 cells. Kind of experiment: TMR-DEX macropinosome uptake assay. The class given is cell-based, mouse. Conditions: WT and IKKα-KD KC6141 cells. The procedure: (§1) Cell imaging. Immunostaining was performed as described^44. Cells were cultured on coverslips and fixed in 4% PFA for 10 min at room temperature. After washing twice in PBS, cells were incubated in PBS containing 10% FBS to block nonspecific sites of antibody adsorption. The cells were then incubated with the appropriate primary antibodies (diluted 1:100) and secondary antibodies (diluted 1:500) in PBS containing 10% FBS with or without 0.1% saponin. For cell macropinosome visualization, 24 hrs after seeding, the cells were serum starved for 18 hrs. Macropinosomes were marked using a high-molecular-mass (70 KD) TMR-Dextran (Invitrogen)-uptake assay, wherein TMR-DEX was added to serum-free medium at a final concentration of 1 mg/ml for 30 min at 37° C. At the end of the incubation period, the cells were rinsed five times in cold PBS and immediately fixed in 4% PFA. For tissue macropinosome visualization^45, fresh pancreata were cut into pieces with an approximate 5-mm cuboidal shape. […]
(§2) Quantification and statistics. To quantify the number of LC3 puncta, a total of 30 cells were recorded and analyzed using the LAS X measurement program on the TCS SPE Leica. Macropinosomes were quantified by using the ‘Analyze Particles’ feature in ImageJ (National Institutes of Health). […]

The subject of experiment [1] is 1305 primary human PDAC cells. Kind of experiment: Cell viability assay (CCK-8). The class given is cell-based. As to conditions: IKKα^low 1305 cells, 3 days. The procedure: (§3) In some embodiments, cells were plated in 96-well plates coated with or without ECM at a density of 3000 cells (MIA PaCa-2, 1444, 1305, COLO 357/FG) or 1500 cells (KC6141) per well and incubated overnight prior to treatment. EIPA (10.5 μM), IPI549 (600 nM), MBQ-167 (500 nM), MRT68921 (600 nM) or erlotinib (2 μM, Sigma), ML385 (10 μM, Sigma), HCQ (10 μM or 80 μM) or their combinations were added to the wells for 24, 72 or 96 hrs. Next, 10 μL of CCK-8 was added to each well. The optical density was read at 450 nm using a microplate reader (FilterMax F5, Molecular Devices, USA) at day 0, 1, 2, 3, and 4. For glutamine-deprivation assays, cells in 96-well plates were rinsed briefly in PBS and incubated in the 0.2 mM glutamine. Glutamine-free DMEM medium was supplemented with 0.2 mM glutamine in the presence of 10% dialyzed FBS and 25 mM HEPES. For glucose-deprivation assays, cells in 96-well plates were rinsed briefly in PBS and incubated in the 0.5 mM glucose. Glucose-free DMEM medium was supplemented with 0.5 mM glucose in the presence of 10% dialyzed FBS and 25 mM HEPES. For some conditions, the medium was supplemented with a final concentration of 2% BSA (Fraction V, fatty-acid-, nuclease and protease-free, Calbiochem). For all experiments, media were replaced every 24 hrs. Viable cell counts were obtained using CCK-8 assay described as above.

For experiment [2], the system named is 1444 primary human PDAC cells. Kind of experiment: Cell viability assay (CCK-8). The class given is cell-based. On the procedure:
as §3

The next experiment concerns MIA PaCa-2 cells. Description: LC3 puncta / LC3-LAMP1 immunofluorescence. The class given is cell-based, human. Conditions: MIA PaCa-2 cells +/- MRT68921. The procedure: as §1, §2

As to `CCN(c1nc(N)c(C(=O)N=C(N)N)nc1Cl)C(C)C` [EIPA, 5-(N-ethyl-N-isopropyl) amiloride], the “MP (macropinosomes)” value with KC6141 cells was “inhibited MP”. For the same compound, the “sensitivity to single agent (cell viability)” value in experiment [1] is “very sensitive”. Further, the “sensitivity of IKKα^Δ and ATG7^Δ cells to EIPA (CCK-8)” value in experiment [2] (IKKα^Δ / ATG7^Δ 1444 cells (functional TP53)) is on record as “highly sensitive”. For the same compound, the “cell viability (total viable cells relative to day 0)” value in experiment [2] (WT, IKKα^Δ and ATG7^Δ 1444 cells, complete medium, EIPA 10.5 μM, days 0-4) is “suppression of cell viability”.

`CN1CCc2cc(Nc3ncc(C4CC4)c(NCCCNC(=O)C4CCC4)n3)ccc2C1` [MRT68921]: in the experiment on MIA PaCa-2 cells, the “autophagosome (LC3) puncta per cell” value was “less autophagosomes; also recorded: reduced autophagosomes; also recorded: significantly abolished”.
